Measurements as given in EP0338306A2, “Halogen-substituted phenoxybenzyl compounds” (BAYER AG, priority 1988, dated 1989).

Tests used:
[1] = test system: Unkräuter, wie z. B. Datura, Galium, Polygonum, Portulak, Sinapis und Solanum; test: Post-emergence test (herbicidal action on weeds); assay type: in vivo; conditions: post-emergence spray on test plants 5 - 15 cm high, 2000 l Wasser/ha, rated after three weeks as % Schädigung vs untreated control; result stated in comparison with Vergleichssubstanz (A)
Source text: (§1) Lösungsmittel: 5 Gewichtsteile Aceton Emulgator: 1 Gewichtsteil Alkylarylpolyglykolether
(§2) Zur Herstellung einer zweckmäßigen Wirkstoffzubereitung vermischt man 1 Gewichtsteil Wirkstoff mit der angegebenen Menge Lösungsmittel, gibt die angegebene Menge Emulgator zu und verdünnt das Konzentrat mit Wasser auf die gewünschte Konzentration. Mit der Wirkstoffzubereitung spritzt man Testpflanzen, welche eine Höhe von 5 - 15 cm haben so, daß die jeweils gewünschten Wirkstoffmengen pro Flächeneinheit ausgebracht werden. Die Konzentration der Spritzbrühe wird so gewählt, daß in 2000 l Wasser/ha die jeweils gewünschten Wirkstoffmengen ausgebracht werden. Nach drei Wochen wird der Schädigungsgrad der Pflanzen bonitiert in % Schädigung im Vergleich zur Entwicklung der unbehandelten Kontrolle.

Weizen = test: Post-emergence test (crop selectivity); assay type: in vivo; conditions: post-emergence spray, 2000 l Wasser/ha, rated after three weeks
Source text: as §1, §2

Compound	Wirkung gegen Unkräuter [1]	Selektivität in Weizen (Weizen)
CCOC(=O)C(C)(O)Cc1cc(Oc2c(Cl)cc(C(F)(F)F)cc2Cl)ccc1Cl (stereo not shown) [Beispiel 6, 1-Hydroxy-1-methyl-2-(2-chlor-5-(2,6-dichlor-4-trifluormethyl-phenoxy)-phenyl)-propionsäure-ethylester]	erheblich stärkere Wirkung	guter Selektivität
FC(F)(F)c1ccc(Oc2ccc(Cl)c(CBr)c2)c(Cl)c1 [Beispiel 1, 2-Chlor-5-(2-Chlor-4-trifluormethyl-phenoxy)-benzylbromid]	erheblich stärkere Wirkung	guter Selektivität
